{"source": "patent US20170035806A1", "about": "“COMPOSITION FOR PROPHYLAXIS AND TREATMENT OF BONE DISORDERS” (Chemische Fabrik Budenheim KG, priority 2014, published 2017)", "format_in_all_cases": "cell-based, Human", "key": {"SaOS-2 cells [1]": {"test_system": "SaOS-2 cells", "assay": "Number of SaOS-2 cells per well (FIG. 3)", "conditions": "for effect on number of SaOS-2 cells per well: polyP 50 μM where present", "method": "Only at a very high concentration, LaCl3 caused a strong drop of SaOS-2 cell number.\n(§1) Human osteogenic sarcoma SaOS-2 cells are cultured in McCoy's medium (Biochrom, Berlin; Germany) containing 5 mM Na-phosphate and 1 mM CaCl2, supplemented with 15% heat inactivated fetal calf serum (FCS), Na-pyruvate (1 mM), Ca(NO3)2 (0.5 mM), penicillin (100 U/ml), and streptomycin (100 μg/ml), in 6-well plates (surface area 9.46 cm^2; Orange Scientifique, Braine-l'Alleud; Belgium) in a humidified incubator at 37° C. and 5% CO2. Routinely, 2×10^4 cells are added per well (total volume 3 ml)."}, "SaOS-2 cells [2]": {"test_system": "SaOS-2 cells", "assay": "HA mineralization with LaCl3 / polyP, Alizarin Red S OD 570 nm (FIG. 5, 6)", "method": "The cells were grown for 4 days in the absence of the activation cocktail (AC) and then for further 7 days (i) in the absence or (ii) in the presence of the activation cocktail with increasing concentrations of LaCl3 without (A) or with (B) 50 μM polyP (polyP•La complex). At the end of the incubation period, HA mineralization was determined by incubation of the cultures with Alizarin Red S in the spectrophotometric assay. […] The OD values at 570 nm measured in the spectrophotometric assay in the absence of the activation cocktail had been subtracted from the OD values at 570 nm measured in the presence of the activation cocktail, and the HA formation in the absence of LaCl3 and polyP (FIG. 5 A) was set to 100%.\nThe data shown in FIG. 5 had been normalized by the number of cells which had been determined in parallel assays. […] The HA formation in the absence of LaCl3 and polyP (FIG. 6 A) was set to 100%.\nSimilar results were obtained if the values were normalized by cell number (FIG. 6)."}, "SaOS-2 cells [3]": {"test_system": "SaOS-2 cells", "assay": "HA mineralization, Alizarin Red S staining and spectrophotometric assay (FIG. 4)", "conditions": "5 μM, Me = Gd", "method": "In this assay Me was Gd. The cells were incubated with 5 μM of each of the compounds. FIG. 4 A: The cells were grown for 7 d in the (a) absence or (b) presence of activation cocktail (AC=50 μM ascorbic acid, 10 nM dexamethasone and 1 mM β-glycerophosphate). In separate experiments the cultures were incubated with the activation cocktail and additionally with (c) MeCl3, (d) polyP, or (e) polyP•Me. After incubation, the cell assays were stained with Alizarin Red S to assess the degree of […]. The diameter of the wells was 15 mm. FIG. 4 B: To quantitatively determine the HA mineralization in SaOS-2 cells, the cultures were assayed at the end of the incubation with Alizarin Red S (AR) in the spectrophotometric assay. […]\nThe intensity of the Alizarin Red colorimetric reaction at the used concentration range is proportional to the extent of mineralization (HA formation), as determined by using a calibration curve. The values measured (given in nmoles of Alizarin Red S bound) were normalized to the total amount of DNA (given in μg) which is proportional to cell number (the amount of DNA per cell is assumed to remain constant during the experiment). […]\nThe influence of trivalent cations on the extent of mineralization of SaOS-2 cells was determined in vitro using McCoy's medium/10% FCS and applying Alizarin Red S as a dye to monitor HA formation. […]"}, "SaOS-2 cells [4]": {"test_system": "SaOS-2 cells", "assay": "SEM analysis of HA nodules", "conditions": "5 μM, activated cultures, 5 days", "method": "In this assay Me was Gd. 5 μM of each compound were added to the cells, and the cells were analysed by SEM. The cell cultures were incubated for 5 days either (A) in the absence or (B) in the presence of the activation cocktail. (C) and (F) show incubation of the activated cells with MeCl3; (D) and (G) show incubation of the activated cells with polyP, and (E) and (H) show incubation of the activated cells with polyP•Me. Some nodules (no) and cell layers (c) are marked.\nTo assure that the increased Alizarin Red S staining is due to a higher HA (Ca-phosphate) deposition SEM analyses were performed. In the absence of the activation cocktail no nodules could be identified on the cells (FIG. 7A). In contrast, if the cells were incubated with the cocktail for 5 days, distinct HA nodules could be identified (FIG. 7B). In the presence of the activation cocktail the cultures were incubated with MeCl3 (FIG. 7C), polyP (FIG. 7D), or both components together, as polyP•Me (FIG. 7E). It is apparent that the density of the nodules in activated cultures incubated with MeCl3 or with polyP alone was lower, compared to polyP•Me. At higher magnification it could be observed that the nodules consisted of irregularly arranged prism-like nanorods (FIGS. 7F to H). […]"}, "SaOS-2 cells [5]": {"test_system": "SaOS-2 cells", "assay": "MTT colorimetric proliferation/viability assay", "conditions": "tested concentration range of 0.3 to 30 μM; Me = Gd", "method": "In this assay Me was Gd. The recordings of developed formazan dye in the control (filled bar) were set to 100%. The results are expressed as means (n=10 experiments each)±SEM.\nThe effects of polyP•Me as well as of the single components polyP and MeCl3 on proliferation/viability of SaOS-2 cells were determined by applying the MMT colorimetric assay (MMT=3-(4,5-dimethylthiazol-2-yl)-2,5-diphenyltetrazolium bromide).\nas §1\nSaOS-2 cells are seeded at a density of 2×10^4 cells per 3-ml well in a 24-multi-well plate (Orange Scientifique) and cultured for 3 days in McCoy's medium/15% FCS. Increasing concentrations of MeCl3, polyP or polyP•Me are added to the cultures. After incubation, cell proliferation is determined applying the colorimetric method based on the tetrazolium salt […]."}, "BMP2": {"test_system": "BMP2", "assay": "qRT-PCR BMP2 gene expression", "conditions": "5 μM"}}}
{"smiles": "[Cl][Al]([Cl])[Cl]", "note": "[AlCl3]", "values": [{"measurement": "effect on number of SaOS-2 cells per well", "setting": "SaOS-2 cells [1]; 0.1 mM AlCl3 and higher", "value": "strong reduction"}]}
{"smiles": "[Cl][La]([Cl])[Cl]", "note": "[LaCl3]", "values": [{"measurement": "HA formation", "setting": "SaOS-2 cells [2]; 0.05 mM LaCl3, absence of polyP, activation cocktail 7 days", "value": "marked increase"}, {"measurement": "stimulatory effect on HA formation", "setting": "SaOS-2 cells [2]; LaCl3 0.5 mM and higher, absence of polyP", "value": "not observed any more"}, {"measurement": "effect on number of SaOS-2 cells per well", "setting": "SaOS-2 cells [1]; 0.05 mM to 1 mM LaCl3", "value": "did not significantly affect"}, {"measurement": "effect on SaOS-2 cell number", "setting": "SaOS-2 cells [1]; very high concentration of LaCl3", "value": "strong drop"}]}
{"smiles": "[Cl][Gd]([Cl])[Cl]", "note": "[MeCl3, GdCl3]", "values": [{"measurement": "Alizarin Red S bound normalized to total DNA (HA mineralization)", "setting": "SaOS-2 cells [3]; 7 days after the addition of the activation cocktail", "value": "0.61 ± 0.08", "unit": "nmol/µg"}, {"measurement": "Alizarin Red S staining intensity / HA formation", "setting": "SaOS-2 cells [3]; in the presence of the activation cocktail, 7 d", "value": "intensified the staining intensity"}, {"measurement": "density of HA nodules compared to polyP•Me", "setting": "SaOS-2 cells [4]", "value": "lower"}, {"measurement": "viability/proliferation of SaOS-2 cells (development of the dye formazan)", "setting": "SaOS-2 cells [5]", "value": "did not change"}, {"measurement": "BMP2 expression level versus day 5", "setting": "BMP2; 7 days", "value": "remained unchanged"}, {"measurement": "increase in steady-state expression of BMP2", "setting": "BMP2; day 5, normalized to GAPDH", "value": 1.4, "unit": "fold"}]}
